The supplement of paper PMC10307832

How the values were obtained:
Test in all cases: relative viability (nuclei count vs DMSO), 5 days (fraction); higher = more cells survive
[1] = compound: C1=CC(=CC=C1C2=CC(=C(S2)NC(=O)N)C(=O)N)F [TPCA-1] + CC(C)C[C@H](NC(=O)[C@H](Cc1ccccc1)NC(=O)c1cnccn1)B(O)O [Bortezomib] (partner 0.002 µM)
Outline: (§1)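 One day after seeding in 1536-well plates, lung cancer cell lines were dosed by pin tool. Dosing was either single-drug or a fixed anchor-drug dose plus five library-drug doses (not always all listed) in √10 steps. After 5 days, nuclei were stained in one fix-and-stain step and counted on 4× images, and relative viability is the nuclei count of treated wells over that of vehicle wells, given as the median of duplicate plates.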

[2] = compound: C1/C(=C\C2=CC=CS2)/C(=O)/C(=C/C3=CC=CS3)/C1 + CC1(C)CCC(c2ccc(Cl)cc2)=C(CN2CCN(c3ccc(C(=O)NS(=O)(=O)c4ccc(N[C@H](CCN5CCOCC5)CSc5ccccc5)c(S(=O)(=O)C(F)(F)F)c4)cc3)CC2)C1 [Navitoclax] (partner 0.5 µM)
Outline: as §1

[3] = compound: C1=CC(=CC=C1C2=CC(=C(S2)NC(=O)N)C(=O)N)F [TPCA-1] + C[C@]1(O)C[C@@H](c2nc(-c3ccc4ccc(-c5ccccc5)nc4c3)c3c(N)nccn32)C1 [Linsitinib] (partner 1 µM)
Outline: as §1

[4] = compound: C1/C(=C\C2=CC=CS2)/C(=O)/C(=C/C3=CC=CS3)/C1 + CS(=O)(=O)CCNCc1ccc(-c2ccc3ncnc(Nc4ccc(OCc5cccc(F)c5)c(Cl)c4)c3c2)o1 [Lapatinib] (partner 2 µM)
Outline: as §1

Cell Line | relative viability ([1]; first compound 0.04 µM) | relative viability ([1]; first compound 0.1265 µM) | relative viability ([1]; first compound 0.4 µM) | relative viability ([1]; first compound 1.265 µM) | relative viability ([1]; first compound 4 µM) | relative viability ([2]; first compound 0.2 µM) | relative viability ([2]; first compound 0.6325 µM) | relative viability ([2]; first compound 2 µM) | relative viability ([2]; first compound 6.325 µM) | relative viability ([2]; first compound 20 µM) | relative viability ([3]; first compound 0.04 µM) | relative viability ([3]; first compound 0.1265 µM) | relative viability ([3]; first compound 0.4 µM) | relative viability ([3]; first compound 1.265 µM) | relative viability ([3]; first compound 4 µM) | relative viability ([4]; first compound 0.2 µM) | relative viability ([4]; first compound 0.6325 µM) | relative viability ([4]; first compound 2 µM) | relative viability ([4]; first compound 6.325 µM) | relative viability ([4]; first compound 20 µM)
LXF-289 | 1.03 | 0.941 | 0.987 | 1.01 | 0.781 | 0.939 | 0.996 | 0.929 | 0.862 | 0.908 | 0.94 | 0.969 | 0.932 | 0.962 | 0.793 | 0.926 | 0.915 | 0.886 | 0.792 | 0.91
LOU-NH91 | 0.508 | 0.514 | 0.502 | 0.523 | 0.574 | 0.726 | 0.744 | 0.724 | 0.581 | 0.723 | 1.02 | 0.841 | 1 | 0.993 | 0.859 | 0.744 | 0.821 | 0.782 | 0.607 | 0.802
NCI-H23 | 1.12 | 0.935 | 0.909 | 1.11 | 0.512 | 0.902 | 0.804 | 0.944 | 0.602 | 0.729 | 0.537 | 0.559 | 0.759 | 0.602 | 0.549 | 0.918 | 1.4 | 1.44 | 0.861 | 1.12
NCI-H1993 | 1.13 | – | 1.14 | 1.28 | 0.836 | 1.04 | 0.877 | 0.971 | 0.693 | 0.818 | 0.711 | – | 0.748 | 0.686 | 0.622 | 0.815 | 0.783 | 0.731 | 0.685 | 0.781
HCC-827 | 1.06 | 1.06 | 1.09 | 0.964 | 0.89 | 1.1 | 0.966 | 1.01 | 0.959 | 1.02 | 0.934 | 0.889 | 0.935 | 0.932 | 0.806 | 0.21 | 0.177 | 0.205 | 0.191 | 0.204
CAL-12T | 1.07 | 0.941 | 1.03 | 0.767 | 0.607 | 1.31 | 1.35 | 1.35 | 0.844 | 1.05 | 0.868 | 0.754 | 0.73 | 0.763 | 0.411 | 0.774 | 0.827 | 0.74 | 0.604 | 0.606
NCI-H838 | 1.2 | 0.594 | 0.876 | 0.35 | 0.739 | 1.23 | 1.17 | 1.14 | 0.86 | 1.05 | 1.06 | 0.868 | 0.962 | 0.886 | 0.811 | 1.01 | 0.889 | 0.994 | 0.926 | 0.866
NCI-H2228 | 1.01 | 0.891 | 0.916 | 1.12 | 0.6 | 0.823 | 1.3 | 0.904 | 0.73 | 1.05 | 0.789 | 0.723 | 0.627 | 0.825 | 0.455 | 1.22 | 1.12 | 1.14 | 0.939 | 1
RERF-LC-KJ | 1.32 | 1.09 | 0.857 | 0.916 | 0.998 | 0.949 | 0.995 | 0.965 | 0.787 | 0.86 | 1.02 | 0.82 | 0.857 | 0.896 | 0.905 | 0.915 | 0.943 | 0.827 | 0.893 | 0.764
HCC-366 | 1.07 | 0.94 | 1.13 | 0.92 | 0.647 | 1.09 | 1 | 0.955 | 1.05 | 1.05 | 0.72 | 0.568 | 0.807 | 0.458 | 0.427 | 1.14 | 0.926 | 1.07 | 0.84 | 0.931
SK-LU-1 | 1.26 | 0.962 | 1.1 | 0.879 | 0.739 | 0.698 | 0.767 | 0.813 | 0.969 | 0.799 | 1.19 | 1.07 | 1.11 | 0.681 | 0.425 | 0.91 | 0.787 | 0.846 | 0.721 | 0.922
HCC-44 | 0.903 | 0.789 | 0.908 | 0.745 | 0.883 | 0.903 | 0.987 | 0.935 | 0.832 | 0.895 | 0.608 | 0.63 | 0.705 | 0.656 | 0.666 | 0.979 | 1.02 | 1 | 0.728 | 0.975
A-427 | 1.05 | 0.981 | 1.08 | 0.976 | 1.07 | 1.03 | 1.02 | 0.982 | 0.852 | 0.92 | 1.13 | 1.06 | 1.17 | 1.09 | 1.12 | 1.09 | 1.01 | 1.01 | 1.02 | 0.982
SW 1573 | 1.07 | 1.19 | 1.1 | 1.11 | 0.834 | 0.908 | 0.979 | 1.15 | 0.862 | 0.833 | 1.03 | 0.881 | 0.807 | 0.802 | 0.643 | 1.07 | 1.15 | 1.17 | 1.09 | 1.03
NCI-H322M | 1.18 | 1.17 | 1.36 | 1.24 | 1.27 | 1.32 | 1.2 | 1.4 | 0.587 | 0.976 | 1.02 | 0.834 | 0.952 | 0.803 | 0.607 | 0.619 | 0.648 | 0.657 | 0.568 | 0.582
NCI-H2023 | 1.07 | 0.941 | 1.11 | 0.845 | 0.386 | 1.08 | 0.991 | 1.03 | 0.971 | 0.94 | 0.706 | 0.721 | 0.765 | 0.559 | 0.409 | 0.877 | 0.87 | 0.889 | 0.734 | 0.67
NCI-H596 | 1.07 | 0.976 | 1.07 | – | 0.976 | 0.987 | 0.975 | 0.919 | 0.956 | 0.933 | 1.14 | 1.05 | 1.13 | 1.11 | 1.14 | 1.13 | 1.03 | 1.1 | 1 | 1.02
IA-LM | 0.834 | 0.804 | 0.847 | 0.781 | 0.559 | 0.938 | 0.925 | 0.88 | 0.565 | 0.704 | 0.75 | 0.411 | 0.47 | 0.259 | 0.378 | 1.08 | 0.749 | 0.779 | 0.757 | 0.67
NCI-H2405 | 0.988 | 0.843 | 1.02 | 0.92 | 0.289 | 1.23 | 0.892 | 1.15 | 0.766 | 1.08 | 1.05 | 0.806 | 0.988 | – | 0.914 | 1.12 | 1.07 | 1.33 | 0.887 | 1.14
NCI-H460 | 1.11 | 0.877 | 1.09 | 0.839 | 0.493 | 1.26 | 1.34 | 1.12 | – | 1.14 | 0.946 | 0.737 | 0.735 | 0.339 | 0.286 | 1.07 | 1.2 | 0.929 | – | 0.893
NCI-H1755 | 0.948 | 0.9 | 1.05 | 0.881 | 0.832 | 1.07 | 1.03 | 0.963 | 0.849 | 0.944 | 0.978 | 0.941 | 1 | 1 | 0.852 | 1.07 | 1.03 | 1.09 | 0.882 | 0.993
NCI-H1734 | 1.02 | 0.816 | 1.12 | 0.938 | 0.554 | 0.837 | 0.908 | 0.914 | 0.812 | 0.866 | 0.992 | 0.729 | 0.878 | 0.829 | 0.89 | 1.02 | 1.05 | 1.17 | 0.906 | 1.09
EPLC-272H | 0.96 | 0.974 | 0.962 | 0.87 | 0.821 | 1.28 | 0.965 | 1.15 | 1.09 | 0.95 | 1.3 | 1.09 | 1.33 | 1.03 | 1.01 | 1.04 | 0.952 | 1.1 | 0.889 | 0.962
NCI-H2126 | 1.15 | 1.04 | 1.07 | 1.06 | 1.09 | 0.941 | 0.79 | 0.832 | 0.628 | 0.845 | 0.752 | 0.657 | 0.709 | 0.724 | 0.595 | 0.774 | 0.751 | 0.787 | 0.691 | 0.745
